From publication PMC3545992, “Trisubstituted Pyrazolopyrimidines as Novel Angiogenesis Inhibitors” (PLoS ONE, 2013)
Where two headings read alike, the source gives them in different places.

Legend:
HMEC-1 cells = experiment: Crystal violet proliferation assay; type: cell-based, human; settings: HMEC-1, 72 h, read-out: IC50 endothelial cell proliferation
Method: HMEC-1 cells were seeded to a density of 1,500 cells/well. After 24 h of incubation, a zero point control was stained with crystal violet. The remaining cells were left untreated as positive control or treated with 0.3-1-3-10–30 µM of the indicated compounds. After 72 h additional incubation, relative proliferation was determined by crystal violet staining and quantified as absorption at 550 nm.
HMEC-1 were seeded into 96-well-plates (1,500 cells/well). After 24 h, the cells were stimulated with the indicated compounds. At the same time point, cells in a reference plate were stained with crystal violet, serving as initial cell number. After 72 hours of stimulation, cells were fixed and stained with crystal-violet solution for 10 minutes, washed with water, and air dried. Crystal violet was eluted with dissolving buffer and absorbance was measured at 550 nm (Tecan Sunrise Absorbance reader, TECAN, Crailsheim, Germany). In a parallel series of experiments, cells seeded at the same cell density as in the proliferation assays were treated with 30 µM of the respective compound for 72 h. Afterwards, 10 µg/ml propidium iodide was added for 30 min to counterstain cells for membrane integrity. Phase contrast and fluorescence images were obtained with an inverted Nikon microscope (Ti, Nikon, Düsseldorf, Germany) equipped with a 10x objective.

[1] = test system: chorioallantoic membrane (CAM); experiment: Chorioallantoic membrane (CAM) assay, VEGF-induced vessel formation; type: in vivo, white leghorn; settings: 250 nmol compound with 2.5 ng VEGF per cellulose disc, 24 h
Method: Fertilized white leghorn eggs were incubated for 72 h at 37°C in humidified atmosphere. After transferring the growing embryo into Petri dishes, a second incubation period of 72 h followed. At day 6, cellulose discs with 2.5 ng VEGF/250 nmol compound were placed on the membrane. 2.5 ng VEGF/DMSO was used as control. Pictures were taken after 24 h of stimulation. Representative images out of at least three experiments are shown.
Fertilized white leghorn eggs were incubated for 72 h at 37°C in humidified atmosphere. After transferring the growing embryo into a Petri dish, a second incubation period of 72 h followed. At day 6, two cellulose discs, one with 2.5 ng VEGF (VEGF 165, human recombinant from PeproTech GmbH, Hamburg, Germany)/250 nmol compound and the other with 2.5 ng VEGF/DMSO as control were placed on one CAM. After 24 h of stimulation, the vascular structure in the stimulated areas of the CAM was visualized using a stereomicroscope and a CCD camera (Olympus, Munich, Germany) and pictures were taken. The cellulose disks were produced as follows: after preparing a cellulose solution (2.5% hydroxyethyl cellulose, 2% polyvinylpyrrolidone (PVP 17), 2% polyethylene glycol (PEG 400) in water), the mixture was autoclaved, resulting in a homogenized, clear solution. For each disk, 200 μl of the warm solution were filled into the preformed circles of the lid of a 96 well plate and allowed to polymerize under a laminar air flow for 48 h. Finally, the cellulose disks were removed using tweezers and stored in a sterile Petri dish until use.

HUVECs [2] = experiment: Tube formation assay on Matrigel; type: cell-based, human; settings: 10 µM, 16 h
Method: Figure 6 LGR 1404, 1406 and 1407 inhibit tube formation at 10 µM. HUVECs were seeded onto a matrix of growth-factor reduced Matrigel^TM in the presence or absence of the respective concentration of the compounds. After 16 h of incubation, images were taken and tube characteristics were quantified. A: Number of tubes (n = 3, mean ± SEM, * p<0.05, One Way ANOVA, Dunnett). B: Number of branching points (n = 3, mean ± SEM, * p<0.05, One Way ANOVA, Dunnett). C: Tube total length (n = 3, mean ± SEM, * p<0.05, One Way ANOVA, Dunnett). D: Representative images of the tube formation assay and the software based tube recognition (structures identified as tubes are blue) in a control (Co, left panel) and after treatment with LGR 1406 (10 µM, right panel).
Pre-cooled BD Matrigel^TM Matrix Growth Factor Reduced (GFR) (BD Biosciences, Heidelberg, Germany) was filled into the lower compartment of μ-slide Angiogenesis wells (ibidi GmbH, Martinsried, Germany) on ice. For polymerization of the Matrigel^TM Matrix, the slides were incubated at 37°C for 30 min. 12,000 HUVECs/well were seeded onto the Matrigel^TM and stimulated for 16 h. The extent of tube formation was determined by light microscopy using the TILLvisON system. Quantitative image analysis of tube length, number of branching points and tube number was performed with a software tool from Wimasis GmbH, Munich.

HUVECs [3] = experiment: Chemotaxis assay in FCS gradient (µ-slides Chemotaxis); type: cell-based, human; settings: for chemotaxis of endothelial cells (in words): 10 µM; for inhibition at 10 µM: Homo sapiens, HUVEC, read-out: inhibition of chemotaxis in accumulative distance
Method: Figure 5 LGR 1404, 1406 and 1407 decrease chemotaxis of endothelial cells. Chemotaxis of HUVECs in the presence or absence of 10 µM of the indicated compounds was determined in µ-slides Chemotaxis. A: Quantitative evaluation of accumulated and euclidean distance, velocity and y-forward migration index (n = 3, mean ± SEM, * p<0.05, One Way ANOVA, Dunnett). B: Representative cell tracking plots of untreated and treated cells.
The effect of the LGR compounds on endothelial cell chemotaxis was determined using Collagen IV coated μ-slides Chemotaxis (ibidi, Martinsried, Germany). HUVECs (5×10^6 cells per ml) were seeded into the observation channel of the slides according to the manual of the manufacturer, and the cells were allowed to attach for 4 hours. Then, the chambers of the chemotaxis slide were completely filled with serum-free medium M 199; and growth medium containing 30% FCS was added to one chamber in order to generate an FCS-gradient from 0% to […]. 10 µM of the indicated compounds were added both to the M199 and to the 30% FCS. Chemotaxis was observed over 20 hours by live-cell imaging with a Zeiss LSM 510 META confocal microscope equipped with an incubator stage (EMBLem, Heidelberg, Germany). A time series was collected taking 1 picture every 10 minutes. For cell tracking and data analysis, the manual tracking plug-in (Fabrice Cordelieres) and the Chemotaxis and Migration Tool (Version 1.01, ibidi, Martinsried, Germany) for ImageJ were used. Euclidean distance (direct distance from the starting point to the end point) was used as an indicator of directionality of movement, accumulative distance (sum of all migrated distances from track to track) and velocity (mean velocity of every cell calculated as ratio between track to track distance and time) were used as a measure for total motility.

Structure (SMILES)	IC50 (HMEC-1 cells; Homo sapiens) [nM]	VEGF-induced vessel formation [1]	reduction of total tube length (HUVECs [2])	tube and branching point numbers and total tube length (in words) (HUVECs [2])	chemotaxis of endothelial cells (in words) (HUVECs [3])	inhibition at 10 µM (HUVECs [3]) [%]	IC50 (HMEC-1 cells) [nM]	reduction of number of branching points (HUVECs [2]) [%]	reduction of tube number (HUVECs [2])	reduction of total tube length (HUVECs [2]; listed as LGR1407) [%]
CC[C@H](CO)Nc1nc(NCc2ccccc2)c2n[nH]c(C(C)C)c2n1 [LGR 1404, 7-Benzylamino-5(R)-[(1-hydroxymethyl)propylamino]-3-isopropyl-1(2)H-pyrazolo[4,3-d]pyrimidine]	7720	completely inhibit	25%	significant reduction	decrease	50				
CC(C)c1n[nH]c2c(NCc3ccccc3)nc(NC3CCCCC3N)nc12 (stereo not drawn) [LGR 1406, 5-[(2-E/Z-aminocyclohexyl)amino]-7-benzylamino-3-isopropyl-1(2)H-pyrazolo[4,3-d]pyrimidine]	~1000	completely inhibit	56%	significant reduction	decrease	70	930	56	42%	
CC(C)c1n[nH]c2c(NCc3ccccc3)nc(NC3CCC(N)CC3)nc12 (stereo not drawn) [LGR 1407, 5-[(4-E-aminocyclohexyl)amino]-7-benzylamino-3-isopropyl-1(2)H-pyrazolo[4,3-d]pyrimidine]	3660	completely inhibit	about 30%	significant reduction	decrease	60		35	about 30%	30
